Entries after “also recorded” stand apart in the source; their conditions may differ. Like-named read-outs stand apart in the source and are kept apart here.
Assays:
[1] = system: RBM20 dependent titin PEVK4-13 splicing reporter; experiment: Dual luciferase splicing reporter assay (DLR assay), RBM20 co-transfected; format: cell-based, human; conditions: for IC50: Homo sapiens
Source text: (§1) The objective of our study was to identify and evaluate small molecules with the potential to modulate alternative splicing via an unbiased chemical high-throughput screening approach. Using transient transfection of a dual luciferase splicing reporter assay (DLR-assay) in HEK293.EBNA cells and a RBM20 expression construct, we investigated >34.000 substances for their effect on alternative exon exclusion from our RBM20 dependent titin PEVK4-13 splicing reporter. For the primary screen (pilot screen), each compound was tested at 10 μM (single point) and compared to an untreated control. Positive hits leading to differential exon usage (exceeding three standard deviations) were picked for independent validation in 9 serial 2-fold dilutions starting at 20 μM. Compounds that produced a concentration dependent effect were validated manually in the 96-well format and cytotoxicity was evaluated. To minimize the detection of false positives, we excluded compounds with structural homology to each luciferase’s natural substrate. To determine the EC50 of candidates we calculated dose response curves using a non-linear least-squares fitting routine available within the GNUPLOT package (accessible online: http://ic50.tk/index.html). […] Compounds that produced a concentration depend effect in the DLR-assay and altered the alternative transcript levels were regarded as validated alternative splicing modulators.
(§2) Cells transfected were at a confluency of 50-60%.
(§3) 5000 HEK293.EBNA cells were seeded in clear bottom, white 384-well plates (Corning by Sigma-Aldrich Chemie GmbH, Munich, Germany) using an automated cell dispenser (Biotek, Bad Friedrichshall, Germany). 24 h after cell seeding the expression plasmids were delivered using a Freedom EVO® robotic workstation (TECAN, Maennedorf, Switzerland) equipped with a MultiChannel Arm™. Cells were transiently transfected with 45 ng plasmid DNA ([…] and 40 ng RBM20 or 24 ng of the negative control pcDNA3.1 ad 45 ng with bacterial expression plasmid pBSSK). Compounds were added to the plates the following day using the same robotic platform. Luciferase activity was determined using Dual-Glo® Luciferase Assay System (Promega GmbH, Mannheim, Germany) on an Infinite® M1000 Pro (TECAN, Maennedorf, Switzerland) plate reader around 60 hours post-transfection. Assay robustness was evaluated by calculation z’ scores using an online tool provided by the Screening Unit at FMP Berlin (http://www.screeningunit-fmp.net/tools/z-prime.php).

[2] = as above; format: cell-based, human; conditions: human; RBM20 titin reporter, N = 3; read-out: cell viability below which the splice reporter readout is affected
Source text: as §1, §2, §3

HEK293.EBNA cells = experiment: Cell viability, resazurin based staining (PrestoBlue); design: species or system human; conditions: for IC50: Homo sapiens, HEK293-EBNA
Source text: as §2

[3] = system: titin minigene TTN Ex241-43 transcripts; experiment: RT-PCR / RT-qPCR of transcripts from titin minigene TTN Ex241-43 (I96-98); format: cell-based, human
Source text: The objective of our study was to identify and evaluate small molecules with the potential to modulate alternative splicing via an unbiased chemical high-throughput screening approach. Using transient transfection of a dual luciferase splicing reporter assay (DLR-assay) in HEK293.EBNA cells and a RBM20 expression construct, we investigated >34.000 substances for their effect on alternative exon exclusion from our RBM20 dependent titin PEVK4-13 splicing reporter. For the primary screen (pilot screen), each compound was tested at 10 μM (single point) and compared to an untreated control. Positive hits leading to differential exon usage (exceeding three standard deviations) were picked for independent validation in 9 serial 2-fold dilutions starting at 20 μM. Compounds that produced a concentration dependent effect were validated manually in the 96-well format and cytotoxicity was evaluated. To minimize the detection of false positives, we excluded compounds with structural homology to each luciferase’s natural substrate. To determine the EC50 of candidates we calculated dose response curves using a non-linear least-squares fitting routine available within the GNUPLOT package (accessible online: http://ic50.tk/index.html). We evaluated the effect on splice activity on the RNA level by RT-qPCR of isoforms generated from a titin minigene containing TTN Ex241-43 (corresponding to TTN I-band exon I96-98) in the presence of the potential splice modulators. […]
Total RNA from HEK293.EBNA cells was extracted using RNeasy Micro Kit (Qiagen, Hilden, Germany) according to the manufacturer’s instructions. […] Quantitative RT-PCR was performed using SYBRGreen master mix (Applied Biosystems by Thermo Fisher Scientific Inc., USA) on a 7900 HT RT-cycler (Applied Biosystems by Thermo Fisher Scientific, Inc., USA). […] To quantification gene expression, we used the ΔΔCT method normalized to 18S or to the alternative transcripts generated from the splicing reporter. PSI values were calculated as ratio of unspliced and spliced reporter transcript. […]

in vitro = conditions: human
Experimental: (§4) For transfection 25000 cells/well were seeded on 96-well Nunc F96 MicroWell™ plates (Life Technologies GmbH, Darmstadt, Germany) and transfected with a total of 200 ng of plasmid DNA of which 1 ng was splice reporter plus a corresponding amount of RBM20, RBFOX1 or control plasmid (pcDNA3.1) in a 20x molar excess. To deliver plasmid DNA we used the 40 kDa linear polyethylenimine (Polysciences Europe GmbH, Hirschberg, Germany) at a 1:3 ratio (DNA:PEI40). Cells transfected were at a confluency of 50-60%. Compounds were applied 24 h post-transfection at a final DMSO concentration of 1%. Luciferase activity was measured 60 hours post-transfection using the Dual-Luciferase® Reporter Assay System (Promega GmbH, Mannheim, Germany) on an Infinite® M200 Pro (TECAN, Maennedorf, Switzerland) plate reader. Ratios of firefly to renilla luciferase activity were normalized to the control (pcDNA3.1) without the splicing factor expression construct. Cell viability was measured 60 h post-transfection using a resazurin based staining of metabolically active cells (PrestoBlue®, Life Technologies GmbH, Darmstadt, Germany).
(§5) To evaluate the specificity of the splice effect, we generated an independent splice reporter based on formin-like 3 (FMNL3) and its splice factor RBFOX1 (S5 Fig). […] To exclude an unspecific effect of cell death on RBM20 dependent splicing, we used the steroidal homolog digitonin to induce cell death.

[4] = system: RBFOX1 dependent splicing of FMNL3; experiment: cells
Experimental: as §4, §5

[5] = molecular target: Na+/K+ ATPase human erythrocytes; design: method as in PMID 11072868; conditions: cited from earlier work
RBM20 protein levels = experiment: RBM20 protein expression by immunoblot in co-transfected HEK293 cells; format: cell-based, human; conditions: 0.235 μM digoxin, co-transfected HEK293 cells
Experimental: For immunodetection, HEK293.EBNA samples were harvested by rinsing them of the cell culture substrate using PBS at 37°C and subsequently used for downstream processing or snap frozen in liquid nitrogen. For protein extraction samples were suspended in RIPA buffer (50 mM Tris pH 8.0, 150 mM NaCl, 1% NP-40, 0.25% sodium deoxycholate, 1.0 mM EDTA; 0.1% SDS) and lysed via sonication with 20 bursts at 70% energy using a VialTweeter (Hielscher Ultrasonics GmbH, Teltow, Germany). Protein concentration was estimated after 20’ precipitation of cell debris at 13,000xg for 20 min at 4°C using BCA assay (Life Technologies GmbH, Darmstadt, Germany [23225]). Samples were kept cool at any time. Lysates were separated by SDS-PAGE [14] and blotted on PVDF membranes. Blotted antigens were probed with mouse anti-c-myc 9E10 ([M5546], Sigma-Aldrich Chemie GmbH, Munich, Germany) tag antibody at 1:2000 and detected using a sheep anti-mouse IgG-HRP (GE Healthcare Europe GmbH, Freiburg, Germany [NA9310V]) conjugate 1:5000 follow by visualization with AceGlow™ (VWR PEQL37) on a FUSION FX7 CCD camera system (Vilber Lourmat Deutschland GmbH, Eberhardzell, Germany).

[6] = HEK293 cells, 60 h post-transfection, RBM20/titin reporter transfected, read-out: Viability IC50

| SMILES | effect on RBM20-mediated titin splicing (in words) ([1]; DLR assay, HEK293) | IC50 ([1]; FLuc/RLuc ratio, HEK293 cells, 96-well format, inset table of figure, read-out: Splicing IC50) | viability at 36 h [2] | IC50 (HEK293.EBNA cells; [6]) | effect on splicing on the mRNA level (in words) ([3]; RT-PCR of minigene, HEK293) | Splicing Hill Coeff. [1] | effect on RBM20-mediated titin splicing (in words) [1] | IC50 ([1]; HEK293, read-out: IC50 Splicing HEK293 cells) | viability at 36 h (in vitro) | IC50 ([4]; Homo sapiens, HEK293, read-out: FMNL3/RBFOX1 Splicing IC50, FMNL3 exons 25-26 reporter co-transfected with RBFOX1, HEK293) | effect on FMNL3 splicing (in words) ([4]; concentrations of up to 20x the half-maximal lethal dose) | IC50 (HEK293.EBNA cells; HEK293, read-out: IC50 viability (half-maximal lethal dose)) | Viability Hill Coeff. (HEK293.EBNA cells; dose response fit, head prints [μM], fits IC50 only) | Viability Max (HEK293.EBNA cells; fit maximum of relative viability, head prints [μM], fits IC50 only) | IC50 [5] | RBM20 protein levels reduced to (RBM20 protein levels) | intron retention / mRNA maturation (in words) ([3]; HEK293 transfected with RBM20 and minigene I96-98) |
| --- | --- | --- | --- | --- | --- | --- | --- | --- | --- | --- | --- | --- | --- | --- | --- | --- | --- |
| C[C@@H]1CC[C@@]2(OC1)O[C@H]1[C@@H](O)[C@H]3[C@@H]4CC[C@H]5C[C@@H](O[C@@H]6O[C@H](CO)[C@H](O[C@@H]7O[C@H](CO)[C@@H](O)[C@H](O[C@@H]8OC[C@@H](O)[C@H](O)[C@H]8O)[C@H]7O[C@@H]7O[C@H](CO)[C@H](O)[C@H](O[C@@H]8O[C@H](CO)[C@@H](O)[C@H](O)[C@H]8O)[C@H]7O)[C@H](O)[C@H]6O)[C@H](O)C[C@]5(C)[C@H]4CC[C@]3(C)[C@H]1[C@@H]2C [Digitonin] | little effect at the highest doses only; also recorded: do not interfere with RBM20 dependent splicing | 14.1 ± 3.98 µM | < 20% | 2670 ± 212 nM | no effect on the mRNA level | – | – | – | – | – | – | – | – | – | – | – | – |
| C[C@H]1O[C@@H](O[C@H]2[C@@H](O)C[C@H](O[C@H]3[C@@H](O)C[C@H](O[C@H]4CC[C@@]5(C)[C@H](CC[C@@H]6[C@@H]5C[C@@H](O)[C@]5(C)[C@@H](C7=CC(=O)OC7)CC[C@]65O)C4)O[C@@H]3C)O[C@@H]2C)C[C@H](O)[C@@H]1O [Digoxin] | – | – | – | 132 ± 6.6 nM | – | 2.8711 ± 0.6588 | efficiently inhibit RBM20 mediated splicing | 0.153 µM | < 30% | 2600 nM | not affected | 132 nM | 2.2906 ± 0.2256 | 1.0089 ± 0.0119 | 0.39 nM | 10% | does not cause intron retention |

Source: paper PMC5995442, “Drug discovery with an RBM20 dependent titin splice reporter identifies cardenolides as lead structures to improve cardiac filling” (PLoS ONE, 2018)
